This note sets out measurements from patent publication US8580268B2, “CpG oligonucleotide analogs containing hydrophobic T analogs with enhanced immunostimulatory activity” (Coley Pharmaceutical GmbH, priority 2006, dated 2013).

Entries after “also recorded” stand apart in the source; their conditions may differ. Strand notation (5' to 3'): a small letter for the sugar, then the base; units joined by * are phosphorothioate-linked, units joined directly phosphodiester-linked; [ ] holds rarer units or linkages, { } end groups; capitals alone tell only the bases. [5IU] = 5-iodo-2'-deoxyuridine (JU); [5EtU] = 5-ethyl-2'-deoxyuridine (EU); [5mC] = 5-methylcytosine; d = 2'-deoxy (DNA)

One data set deals with T1, human TLR9 (Homo sapiens, UniProt Q9NR96).
T1 construct: expressed in transfected cells
T1 sequence (Q9NR96 26-1032): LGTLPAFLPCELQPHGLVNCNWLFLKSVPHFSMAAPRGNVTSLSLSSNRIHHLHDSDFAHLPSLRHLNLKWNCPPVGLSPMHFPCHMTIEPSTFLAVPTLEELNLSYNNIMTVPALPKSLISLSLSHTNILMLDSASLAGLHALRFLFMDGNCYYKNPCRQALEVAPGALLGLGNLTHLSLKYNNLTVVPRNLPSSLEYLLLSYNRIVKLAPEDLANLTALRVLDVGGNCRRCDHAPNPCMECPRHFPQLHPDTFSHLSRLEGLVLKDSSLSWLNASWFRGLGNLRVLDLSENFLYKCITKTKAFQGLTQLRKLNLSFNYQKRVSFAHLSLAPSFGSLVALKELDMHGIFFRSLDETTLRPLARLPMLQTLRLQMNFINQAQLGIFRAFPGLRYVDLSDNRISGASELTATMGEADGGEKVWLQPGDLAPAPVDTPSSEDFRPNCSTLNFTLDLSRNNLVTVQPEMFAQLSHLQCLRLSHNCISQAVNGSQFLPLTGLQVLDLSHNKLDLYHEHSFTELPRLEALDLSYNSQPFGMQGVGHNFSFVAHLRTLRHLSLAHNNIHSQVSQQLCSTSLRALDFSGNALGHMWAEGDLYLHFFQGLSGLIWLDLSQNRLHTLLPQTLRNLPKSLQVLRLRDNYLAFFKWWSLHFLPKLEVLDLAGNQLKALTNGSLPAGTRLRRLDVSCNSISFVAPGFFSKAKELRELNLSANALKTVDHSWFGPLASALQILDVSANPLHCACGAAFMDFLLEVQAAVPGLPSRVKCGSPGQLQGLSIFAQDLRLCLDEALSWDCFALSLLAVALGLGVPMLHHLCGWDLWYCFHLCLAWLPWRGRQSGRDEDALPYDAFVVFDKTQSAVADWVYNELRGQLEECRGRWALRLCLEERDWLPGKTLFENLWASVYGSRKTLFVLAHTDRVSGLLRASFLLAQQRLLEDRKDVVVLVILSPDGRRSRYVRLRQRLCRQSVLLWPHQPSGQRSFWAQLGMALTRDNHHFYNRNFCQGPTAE
Put plainly: TLR9 luciferase assay (NF-κB reporter) in hTLR9-LUC-293 cells. The settings on record: 16 h, stated in words relative to the comparator ODN. Format: cell-based. How it is done: HEK293 cells were transfected by electroporation with vectors expressing the respective human TLR and a 6xNF-κB-luciferase reporter plasmid. Stable transfectants (3×10^4 cells/well) were incubated indicated amounts of ODN for 16 h at 37° C. in a humidified incubator. Each data point was done in triplicate. Cells were lysed and assayed for luciferase gene activity (using the BriteLite kit from Perkin-Elmer, Zaventem, Belgium). Stimulation indices were calculated in reference to reporter gene activity of medium without addition of ODN.

For data set [1], the system named is human PBMC. Description: IFN-alpha production in human PBMC (ELISA). The format is cell-based. How it is done:
(§1) Peripheral blood buffy coat preparations from healthy human donors were obtained from the Blood Bank of the University of Düsseldorf (Germany) and PBMC were purified by centrifugation over Ficoll-Hypaque (Sigma). Cells were cultured in a humidified incubator at 37° C. in RPMI 1640 medium supplemented with 5% (v/v) heat inactivated human AB serum (BioWhittaker) or 10% (v/v) heat inactivated FCS, 2 mM L-glutamine, 100 U/ml penicillin and 100 μg/ml streptomycin (all from Sigma).
(§2) PBMC were resuspended at a concentration of 5×10^6 cells/ml and added to 96 well round-bottomed plates […]. PBMC were incubated with ODN and culture supernatants (SN) were collected after the indicated time points. If not used immediately, SN were stored at −20° C. until required.
(§3) Amounts of cytokines in the SN were assessed using an in-house ELISA for IFN-α developed using commercially available antibody (PBL, New Brunswick, N.J., USA) or on the Luminex multiplex system (Luminex Corporation, 12212 Technology Boulevard, Austin, Tex. 78727-6115).

The next data set deals with SaI/N tumor cells. Put plainly: Mouse SA1N tumor model. Format: in vivo. The conditions noted are these: A/J mice. As for the experimental part: SA1N tumor model: Female A/J mice (10 per group) were injected SC with 5×10^5 SaI/N tumor cells on day 0. Mice were treated with 100 μg ODN or PBS alone given SC once weekly starting on day 8 post tumor induction. Animals were monitored for survival and tumor volume. Tumor size (the length and the width) was measured using a digital vernier caliper. Tumor volume was calculated by using the formula: Tumor volume=(0.4) (ab2), where a=large diameter and b=smaller diameter.
Next the modified P-class ODN were evaluated for their ability to reduce tumor volume mouse SA1N tumor model. Female A/J mice (10 per group) were injected SC with 5×10^5 SaI/N tumor cells on day 0. Mice were treated with 35 μg (FIG. 31a) or 100 μg (FIG. 31b) P-class ODN with a lipophilic substituted nucleotide analog (SEQ ID NO:60, 64, and 67), an unmodified C-class ODN, an unmodified B-class ODN (SEQ ID NO:55), or PBS alone. ODN were given SC once weekly starting on day 8 post tumor induction. Animals were monitored for survival and tumor volume.

Data set [2] concerns human PBMC. Put plainly: IL-6 induction in human PBMC (luminex). The format is cell-based. The conditions noted are these: human PBMC from three donors, 24 h. How it is done:
as §1, §2, §3
Next the modified P-class ODN were tested for the ability to induce IL-6 in human PBMC. PBMC from three donors were incubated with ODN at concentrations as indicated for 24 h, followed by luminex 25-plex analysis of the supernatants for IL-6. The activity of modified P-class ODN (SEQ ID NO:58, 60-62, FIG. 28a) (SEQ ID NO:64 and 67, FIG. 28b) was compared to that of an unmodified B-class ODN (SEQ ID NO:55), and unmodified C-class ODN (SEQ ID NO:54), a negative control ODN (SEQ ID NO:53), and an unmodified P-class ODN (SEQ ID NO:56).

The test system of another data set is BALB/c mice. Put plainly: In vivo murine IFN-alpha induction after SC injection (ELISA). The arrangement: species or system mouse. The settings on record: bled at 3 hr post injection. How it is done: Female BALB/c mice (6-8 weeks of age) were purchased from Charles River Canada (Quebec, Canada) and housed in micro-isolators in the Animal Care Facility at Coley Pharmaceutical Group Canada. All studies were conducted in accordance with the Animal Care Committee of Coley Canada under the guidance of the Canadian Council on Animal Care. All animals were naïve to CpG ODNs.
In order to determine the effect of the modified P-class ODN in vivo, BALB/c mice (5 per group) were injected SC with differing doses of ODN. Animals were bled at 3 hr post injection and plasma tested for IFN-alpha by ELISA. The activity of modified P-class ODN (SEQ ID NO:58, 60-62, 64, and 67) was compared to that of a B-class negative control (SEQ ID NO:55) and a negative control (SEQ ID NO:26).

Where [3] appears, read: 35 μg ODN SC once weekly from day 8.
The mark [4] stands for this setting: 100 μg ODN SC once weekly from day 8.

With “JU*C-G*T*C*G*A*C*G*A*T*C*G*G*C*G*G*C*C*G*C*C*G*T (DNA d[5IU]*dCdG*dT*dC*dG*dA*dC*dG*dA*dT*dC*dG*dG*dC*dG*dG*dC*dC*dG*dC*dC*dG*dT) [SEQ ID NO:66, JU-modified P-class with phosphodiester bond in the CG dinucleotide]”, in the data set with human TLR9, the “TLR9 stimulation (NF-κB luciferase activity, relative stimulation index)” value is on record as “higher degree of TLR9 stimulation than the unmodified P class ODN; also recorded: reduced activity compared to the fully phosphorothioate SEQ ID NO:67”. Besides, the IFN-alpha induction result in the data set on human PBMC [1] (human PBMC incubated 48 hours, ELISA, P-class ODN) is reported as “reduced activity compared to SEQ ID NO:67”.
Regarding “JU*C*G*T*C*G*A*C*G*A*T*C*G*G*C*G*G*C*C*G*C*C*G*T (DNA d[5IU]*dC*dG*dT*dC*dG*dA*dC*dG*dA*dT*dC*dG*dG*dC*dG*dG*dC*dC*dG*dC*dC*dG*dT) [SEQ ID NO:67, JU-modified fully phosphorothioate P-class]”, the “TLR9 stimulation (NF-κB luciferase activity, relative stimulation index)” value with human TLR9 was “higher degree of TLR9 stimulation than the unmodified P class ODN”. In addition, the “reduction in tumor volume” value is given as “greatest reduction in tumor volume” in the data set on SaI/N tumor cells (setting [3]) and “effective in reducing tumor volume” with SaI/N tumor cells (setting [4]). In addition, the IL-6 induction entry with human PBMC [2] is “slightly higher activation of IL-6”.
For “T*G*T*C-G*T*T*T*T*T*T*T*T*T*T*T*T*T*T*T (DNA dT*dG*dT*dCdG*dT*dT*dT*dT*dT*dT*dT*dT*dT*dT*dT*dT*dT*dT*dT) [SEQ ID NO:1, reference compound]”, the IFN-alpha production result with human PBMC [1] (human PBMC, 24 h, supernatants by ELISA, B-class ODN) is “virtually inactive”.
As for “JU*C-G*A*C*G*T*C*G*A*T*C*G*G*C*G*C*G*C*G*C*C*G (DNA d[5IU]*dCdG*dA*dC*dG*dT*dC*dG*dA*dT*dC*dG*dG*dC*dG*dC*dG*dC*dG*dC*dC*dG) [SEQ ID NO:58, JU-modified P-class]”, in the data set with BALB/c mice, the “plasma IFN-alpha induction” value was “slightly higher IFN-alpha induction”. In addition, the IL-6 induction result with human PBMC [2] is listed as “slightly higher activation of IL-6”.
Regarding “JU*C*G*A*C*G*T*C*G*A*T*C*G*G*C*G*C*G*C*G*C*C*G*T (DNA d[5IU]*dC*dG*dA*dC*dG*dT*dC*dG*dA*dT*dC*dG*dG*dC*dG*dC*dG*dC*dG*dC*dC*dG*dT) [SEQ ID NO:61, JU-modified P-class]”, the “plasma IFN-alpha induction” value in the data set on BALB/c mice is recorded as “slightly higher IFN-alpha induction”. Also, the IL-6 induction result with human PBMC [2] is reported as “slightly higher activation of IL-6”.
“JU*C-G*A*C*G*T*C*G*A*T*C*G*G*C*G*C*G*C*G*C*C*G*T (DNA d[5IU]*dCdG*dA*dC*dG*dT*dC*dG*dA*dT*dC*dG*dG*dC*dG*dC*dG*dC*dG*dC*dC*dG*dT) [SEQ ID NO:60, JU-modified P-class]”: in the data set on BALB/c mice, the “plasma IFN-alpha induction” value was “slightly higher IFN-alpha induction”. Moreover, the “reduction in tumor volume” value in the data set on SaI/N tumor cells (setting [3]) is given as “greatest reduction in tumor volume”; with SaI/N tumor cells (setting [4]), “effective in reducing tumor volume”. In the data set on human PBMC [2], the IL-6 induction entry is reported as “slightly higher activation of IL-6”.
With “EU*C-G*A*C*G*T*C*G*A*T*C*G*G*C*G*C*G*C*G*C*C*G (DNA d[5EtU]*dCdG*dA*dC*dG*dT*dC*dG*dA*dT*dC*dG*dG*dC*dG*dC*dG*dC*dG*dC*dC*dG) [SEQ ID NO:64, EU-modified P-class]”, the “TLR9 stimulation (NF-κB luciferase activity, relative stimulation index)” value with human TLR9 is listed as “higher degree of TLR9 stimulation than the unmodified P class ODN”. Besides, the “reduction in tumor volume” value in the data set on SaI/N tumor cells (setting [3]) was “greatest reduction in tumor volume”; in the data set on SaI/N tumor cells (setting [4]), “effective in reducing tumor volume”.
On to “T*G*PU*C-G*T*T*T*T*T*T*T*T*T*T*T*T*T*T*T (DNA TGNCGTTTTTTTTTTTTTTT; 5-propynyl-dU, chemistry not fully specified) [SEQ ID NO:116, B-class with 5-proynyl-dU (PU)]”, for which the “TLR9 stimulation (NF-κB luciferase activity, relative stimulation index)” value with human TLR9 is “activity comparable to that of the parent sequence; also recorded: slightly improved over the parent sequence”.
For “T*C-G-A-C-G-JU-C-G-JU-G-G*G*G*G (DNA dT*dCdGdAdCdGd[5IU]dCdGd[5IU]dGdG*dG*dG*dG) [SEQ ID NO:36, JU-modified A class]”, in the data set with human TLR9, the “TLR9 stimulation (NF-κB luciferase activity, relative stimulation index)” value was “increased stimulation of TLR9 above unmodified A and C class”.
Regarding “(T*G*JU*C-G*T*T*L*)2doub-teg (DNA TGNCGTTNNN; JU modification, 3'3'-branched doubler with TEG, chemistry not fully specified) [SEQ ID NO:101]”, in the data set with human TLR9, the “TLR9 stimulation (NF-κB luciferase activity, relative stimulation index)” value is listed as “as active or more active than the unmodified SEQ ID NO:1; also recorded: more active than SEQ ID NO:96 AND 97”.
On the same count and under the same terms, then “T*G*JU*Z-G*T*T*T*T*T*T*T*T*T*T*T*T*T*T*T (DNA dT*dG*d[5IU]*d[5mC]dG*dT*dT*dT*dT*dT*dT*dT*dT*dT*dT*dT*dT*dT*dT*dT) [SEQ ID NO:140, B-class with 5-methyl-dC (Z)]”, with “more active in the assay than the parent ODN”.
